From patent US8883827B2, “Azole derivatives as WTN pathway inhibitors” (Oslo University Hospital HF, priority 2009, dated 2014)

Columns and labels:
Assay type in all cases: cell-based
SW1463 = assay: MTS cell proliferation assay, Table 6; details: 10 μM, 72 h, relative to DMSO control
Text: (§1) Control cell lines used were HeLa cells (cell growth not controlled by canonical Wnt signalling) and colorectal cancer cell lines LS174T and HCT116 (with mutant β-catenin N-terminal phosphorylation sites). Target cell lines used were colorectal cancer cell lines WiDr, LoVo, HCT-8, HCT-15, COL0205, DLD-1, HT-29, SW620, SW1463, SW480 which all carry a mutant APC gene. Target cells, along with L Wnt3a-expressing cells and HEK293 cells, were purchased from ATCC (American Type Culture Collection) and maintained according to the supplier's recommendations. Wnt3a containing conditioned media (Wnt3a-CM) from L Wnt3a expressing cells was harvested as described by ATCC.
(§2) For the experiment giving the results shown in Table 6, cells were exposed to cell culture medium (including 10% FBS) containing 10 μM of the compound to be tested 24 hours after seeding (3000 cells on 96-well plates). Medium was changed daily. After 72 hours, an MTS assay (CellTiter 96® AQueous Non-Radioactive Cell Proliferation Assay—Promega) was carried out according to the standard procedure. 0.1% DMSO was used as a control.
(§3) The quantity of reduced MTS product (as measured by the absorbance at 490 nm) is directly proportional to the number of living cells in the culture and thus allows a direct comparison of cell proliferation in each case. DMSO was used as a control. The following formula was used to determine single well relative A490 sample values: ((Sample A490−Average A490t0)*100)/(Average A490t720.1% DMSO control−Average A490t0)
(§4) Data shown are A490-percentage values relative to the DMSO control, calculated as described above, and represent averages from 2 to 4 independent experiments (except SW1463 cells treated with IWR-1 which reports only a single experiment). Compounds IWR-1 and XAV939 are known Wnt pathway inhibitors.

HCT-15 = assay: MTS cell proliferation assay, Table 6; details: 10 μM, 72 h, relative to DMSO control
Text: as §1, §2, §3, §4

DLD-1 = assay: MTS cell proliferation assay, Table 6; details: 10 μM, 72 h, relative to DMSO control
Text: as §1, §2, §3, §4

SW620 = assay: MTS cell proliferation assay, Table 6; details: 10 μM, 72 h, relative to DMSO control
Text: as §1, §2, §3, §4

SW480 = assay: MTS cell proliferation assay, Table 6; details: 10 μM, 72 h, relative to DMSO control
Text: as §1, §2, §3, §4

WiDr = assay: MTS cell proliferation assay, Table 6; details: 10 μM, 72 h, relative to DMSO control
Text: as §1, §2, §3, §4

HeLa cells = assay: MTS cell proliferation assay, Table 6; details: HeLa (control); 10 μM, 72 h; relative to DMSO control
Text: as §1, §2, §3, §4

HCT-8 = assay: MTS cell proliferation assay, Table 6; details: 10 μM, 72 h, relative to DMSO control
Text: as §1, §2, §3, §4

HT-29 = assay: MTS cell proliferation assay, Table 6; details: 10 μM, 72 h, relative to DMSO control
Text: as §1, §2, §3, §4

LS174T = assay: MTS cell proliferation assay, Table 6; details: LS174T (control); 10 μM, 72 h; relative to DMSO control
Text: as §1, §2, §3, §4

COLO205 = assay: MTS cell proliferation assay, Table 6; details: 10 μM, 72 h, relative to DMSO control
Text: as §1, §2, §3, §4

LoVo = assay: MTS cell proliferation assay, Table 6; details: 10 μM, 72 h, relative to DMSO control
Text: as §1, §2, §3, §4

HCT116 = assay: MTS cell proliferation assay, Table 6; details: HCT116 (control); 10 μM, 72 h; relative to DMSO control
Text: as §1, §2, §3, §4

APC mutant cell lines = assay: MTS cell proliferation assay, Table 6, mean; details: 10 μM, 72 h; for Ratio of means: APC mutant cell lines versus control cell lines; for Mean proliferation (APC mutant cell lines): ten APC mutant colorectal lines
Text: as §1, §2, §3, §4

control cell lines = assay: MTS cell proliferation assay, Table 6, mean; details: HeLa, HCT116, LS174T; 10 μM, 72 h
Text: as §1, §2, §3, §4

canonical Wnt signaling [1] = assay: ST-Luc (SuperTOPFlash) Luciferase assay in HEK293 cells, 30% Wnt3a-CM; details: Homo sapiens, HEK293; 10 μM compound, 30% Wnt3a-CM, 24 h; relative to DMSO control
Protocol: Inhibition of Wnt signaling by compound No. 1 was quantified in vitro using a Luciferase assay in HEK293 cells transiently transfected with SuperTOPFlash plasmid (ST-Luc) (Veeman M T et al., Curr. Biol. 13: 680-685, 2003) at concentrations from 0.1-10 μM. HEK293 cells were purchased from ATCC (American Type Culture Collection) and maintained according to suppliers recommendations.
Transfection was performed using 80000 HEK293 cells seeded in 48-well plates coated with poly-L lysine. After 24 hours, 0.25 μg total plasmid DNA (0.23 μg SuperTOPFlash+0.02 μg pRL-TK (Renilla)—Promega) and 0.75 μl FuGENE6 (Roche) was combined in a total volume in 25 μl Opti-MEM® (Invitrogen) as described by the manufacturer (Roche). The transfection mixture was added to the plated cells and media were changed after 24 hours.
The Luciferase assay was performed by incubating transfected cells for 24 hours with various concentrations of compound No. 1 in 30% Wnt3a-CM (Wnt3a containing conditioned medium from L Wnt3a cells was harvested as described by ATCC). All treated reporter cells were finally lysed and the firefly luciferase and Renilla activities were measured on a 20/20n Luminometer (Turner BioSystems) as described in the Dual-Glo™ Luciferase Assay System Technical Manual (Promega).
HEK293 cells were transfected, grown and assayed as described in Example 22. 24 hours after seeding, the cells were incubated for an additional 24 hours with 10 μM concentrations of compounds in 30% Wnt3a-CM.
The percent activities shown in Table 3 are calculated relative to DMSO as a control. Some values shown are averages of multiple measurements. Compound XAV939 (Novartis; Huang et al., Nature (2009), 461, pp. 614-20) which is used as a positive control, has an activity of 7%.

canonical Wnt signaling [2] = assay: IC50 in STF/REN HEK293 cells, 50% Wnt3a-CM; details: Homo sapiens; STF/REN HEK293, 50% Wnt3a-CM, 24 h
Protocol: IC50 values were calculated using STF/REN HEK293 cells prepared essentially according to Example 22. Briefly, HEK293 cells (80,000 cells per well) were seeded in 48-well plates coated with poly-L lysine. 24 hours after seeding, the cells were incubated for an additional 24 hours with various compound concentrations in 50% Wnt3a-CM. After compound exposure, the cells were lysed and the firefly luciferase and Renilla activities were measured on a 20/20n Luminometer (Turner BioSystems) as described in the Dual-Glo™ Luciferase Assay System Technical Manual (Promega).
(§5) XLfit (idbs) was used to determine the IC50 and GI50 values in inhibition experiments. The data were fit to the following formulae:
IC50: Langmuir Binding Isotherm: fit=((A+(B*x))+(((C−B)*(1−exp((−1*D)*x)))/D)) res=(y−fit)

SW480 cells = assay: Growth inhibition (GI50) MTS assay; details: Homo sapiens, 72 h
Protocol: Growth inhibition curves were prepared using SW480 cells, prepared essentially according to Example 23. SW480 cells (3000 cells per well) were seeded on 96 well plates (eight replicates per treatment). 24 hours later and daily thereafter, cell culture media (including 10% FBS) was mixed with various compound concentrations or with 0.1% DMSO vehicle and then added to the wells. Sixteen wells of seeded control cells, defining incubation time zero (to =24 hour after cell seeding), were incubated with […] substrate in 100 μl of phenol-free D-MEM (Invitrogen) for 2 hours, as described in the CellTiter 96® AQueous Non-Radioactive Cell Proliferation Assay protocol (MTS, Promega). The A490 was recorded. The treatment samples were likewise measured after 72 hours. The following formula was used to determine the single well relative A490 sample values: ((Sample A490−Average A490t0)*100)/(Average A490t720.1% DMSO control−Average A490t0)
as §5
GI50: Eadie-Hofstee Model: fit=(A+((B*x)/((C*(D+1))+x))) inv=(((y−A)*(C*(D+1)))/((A+B)−y)) res=(y−fit)

[3] = system: SW480 colon carcinoma cells; assay: MTS cell proliferation assay, Table 5; details: Homo sapiens; SW480, 10 μM, 72 h; relative to DMSO control; read-out: Cell proliferation (%) for test compounds
Protocol: For the experiment giving the results shown in Table 5, cells (3000 per well) were seeded on 96 well plates (eight replicates per treatment). After 24 hours, and daily thereafter, cell culture medium (including 10% FBS) was mixed with 10 μM compounds or with 0.1% DMSO vehicle and then added to the wells. Sixteen wells of seeded control cells, defining incubation time zero (t0=24 hour after cell seeding), were incubated with 20 μl substrate in 100 μl phenol free D-MEM (Invitrogen) for 2 hours, as described in the CellTiter 96® AQueous Non-Radioactive Cell Proliferation Assay protocol (Promega). The A490 was recorded. The treatment samples were likewise measured after 72 hours.
as §3
The proliferation of SW480 cells (in percent) is the A492 value relative to that of the DMSO control.

IC50 (canonical Wnt signaling [2]) [nM]	GI50 (SW480 cells) [nM]	SMILES	Cell proliferation (%) (SW1463)	Cell proliferation (%) (HCT-15)	Cell proliferation (%) (DLD-1)	Cell proliferation (%) (SW620)	Cell proliferation (%) (SW480)	Cell proliferation (%) (WiDr)	Cell proliferation (%) (HeLa cells)	Cell proliferation (%) (HCT-8)	Cell proliferation (%) (HT-29)	Cell proliferation (%) (LS174T)	Cell proliferation (%) (COLO205)	Cell proliferation (%) (LoVo)	Cell proliferation (%) (HCT116)	Ratio of means (APC mutant cell lines)	Mean proliferation (APC mutant cell lines) (APC mutant cell lines) [%]	Mean proliferation (control cell lines) (control cell lines) [%]	activity at 10 µM (canonical Wnt signaling [1]) [%]	activity at 10 µM [3] [%]
–	–	O=C(Nc1cccc2cccnc12)c1ccc(N2C(=O)[C@@H]3[C@H](C2=O)[C@@H]2C=C[C@H]3C2)cc1 [IWR-1, reference compound]	57	64	97	48	62	61	77	70	33	63	55	73	83	0.83	62	74	–	–
< 100	–	Oc1nc(-c2ccc(C(F)(F)F)cc2)nc2c1CSCC2 [XAV939, reference compound]	64	90	102	102	103	94	92	105	100	97	116	129	109	1.01	101	99	7	–
160	8000	Cc1ccc(-c2noc(CSc3nnc(-c4ccncc4)n3-c3ccccc3Cl)n2)cc1 [compound 43]	1	54	76	33	51	76	92	69	63	99	33	64	86	0.56	52	92	7.8	–
< 100	–	Cc1ccc(-c2nnc(CSc3nnc(-c4ccncc4)n3-c3ccccc3Cl)o2)cc1 [compound 60]	12	54	78	50	59	70	92	51	58	105	53	67	87	0.58	55	95	17.3	49
